Data from US9221875B2, “Amphiphilic peptides for treatment of keratitis” (Agency for Science, Technology and Research, priority 2013, dated 2015).
In brackets after ≈: the same amount, converted by molar mass. Read-outs that look alike come from different tables or passages of the source. Marks after values point to notes of the source that are not given here. Square brackets hold non-standard residues; d marks the D form. Peptide text beside a SMILES is read from it.

What was measured:
[1] = test system: C. albicans; conditions: 42 h
[2] = test system: S. aureus; conditions: 18 h
[3] = test system: 5 microorganisms tested (S. epidermidis, S. aureus, E. coli, P. aeruginosa, C. albicans); test: Mean MIC over the panel and selectivity index (Example 1); format: cell-based
Description: Red blood cells suspension incubated with PBS was used as negative control.

[4] = test system: S. epidermidis; conditions: 18 h
[5] = test system: P. aeruginosa; conditions: 18 h
[6] = test system: E. coli; conditions: 18 h
[7] = test system: C. albicans
[8] = test system: S. epidermidis; conditions: 18 h; remark: listed apart in the source
[9] = test system: E. coli; conditions: 18 h; remark: listed apart in the source
[10] = test system: S. aureus; conditions: 18 h; remark: listed apart in the source
[11] = test system: rabbit red blood cells; format: cell-based; conditions: red cells of rabbit, 1 h
[12] = test system: P. aeruginosa; conditions: 18 h; remark: listed apart in the source
[13] = test system: 5 microorganisms tested (S. epidermidis, S. aureus, E. coli, P. aeruginosa, C. albicans); test: Mean MIC over the panel and selectivity index (Example 2)
[14] = test system: clinically isolated Mycobacterium tuberculosis
[15] = test system: C. albicans keratitis; test: Contact lens-associated C. albicans keratitis mouse model
[16] = test system: mice; conditions: reported values; cited from earlier work
[17] = test system: E. coli; format: cell-based, Escherichia coli
[18] = topical eye drops, peptides 3000 mg/L, amphotericin B 1000 mg/L

Compound | MIC C. albicans [1] | MIC S. aureus [2] | GM, geometric mean of MIC values for the 5 microorganisms tested [3] | MIC S. epidermidis [4] | MIC P. aeruginosa [5] | MIC E. coli [6] | MIC C. albicans [7] | MIC E. coli [9] | MIC S. aureus [10] | MIC P aeruginosa [12] | further results
N=C(N)NCCC[C@H](NC(=O)[C@H](Cc1ccccc1)NC(=O)[C@H](CCCCN)NC(=O)[C@H](Cc1ccccc1)NC(=O)[C@H](CCCNC(=N)N)NC(=O)[C@@H](N)Cc1ccccc1)C(=O)N[C@@H](Cc1ccccc1)C(=O)N[C@@H](CCCCN)C(N)=O [(FRFK)2-NH2] (H-FRFKFRFK-NH2; N-terminus assumed) | 62.5 µg/mL (≈ 53.2 µM) | 250 µg/mL (≈ 213 µM) | 79.7 µg/mL | 7.8 µg/mL (≈ 6.64 µM) | 62.5 µg/mL (≈ 53.2 µM) | 15.6 µg/mL (≈ 13.3 µM) |  |  |  |  | 
CC[C@H](C)[C@H](N)C(=O)N[C@@H](CCCNC(=N)N)C(=O)N[C@H](C(=O)N[C@@H](CCCNC(=N)N)C(=O)N[C@H](C(=O)N[C@@H](CCCNC(=N)N)C(=O)N[C@H](C(=O)N[C@@H](CCCNC(=N)N)C(N)=O)[C@@H](C)CC)[C@@H](C)CC)[C@@H](C)CC [(IRIR)2-NH2] (H-IRIRIRIR-NH2; N-terminus assumed) | 15.6 µg/mL (≈ 14.3 µM) | 31.3 µg/mL (≈ 28.6 µM) | 13.3 µg/mL | 3.9 µg/mL (≈ 3.56 µM) | 7.8 µg/mL (≈ 7.13 µM) | 7.8 µg/mL (≈ 7.13 µM) |  |  |  |  | 
CC[C@H](C)[C@H](N)C(=O)N[C@@H](CCCNC(=N)N)C(=O)N[C@H](C(=O)N[C@@H](CCCCN)C(=O)N[C@H](C(=O)N[C@@H](CCCNC(=N)N)C(=O)N[C@H](C(=O)N[C@@H](CCCCN)C(N)=O)C(C)C)[C@@H](C)CC)C(C)C [(IRVK)2-NH2] (H-IRVKIRVK-NH2; N-terminus assumed) | 7.8 µg/mL (≈ 7.72 µM) | 250 µg/mL (≈ 247 µM) | 78.1 µg/mL | 7.8 µg/mL (≈ 7.72 µM) | 62.5 µg/mL (≈ 61.9 µM) | 62.5 µg/mL (≈ 61.9 µM) |  |  |  |  | 
CC(C)[C@H](N)C(=O)N[C@@H](CCCNC(=N)N)C(=O)N[C@H](C(=O)N[C@@H](CCCCN)C(=O)N[C@H](C(=O)N[C@@H](CCCNC(=N)N)C(=O)N[C@H](C(=O)N[C@@H](CCCCN)C(N)=O)C(C)C)C(C)C)C(C)C [(VRVK)2-NH2] (H-VRVKVRVK-NH2; N-terminus assumed) | 15.6 µg/mL (≈ 15.9 µM) | >500 µg/mL |  | 62.5 µg/mL (≈ 63.6 µM) | >500 µg/mL | 250 µg/mL (≈ 255 µM) |  |  |  |  | 
N=C(N)NCCC[C@H](NC(=O)[C@H](Cc1c[nH]c2ccccc12)NC(=O)[C@H](CCCCN)NC(=O)[C@H](Cc1c[nH]c2ccccc12)NC(=O)[C@H](CCCNC(=N)N)NC(=O)[C@@H](N)Cc1c[nH]c2ccccc12)C(=O)N[C@@H](Cc1c[nH]c2ccccc12)C(=O)N[C@@H](CCCCN)C(N)=O [(WRWK)2-NH2] (H-WRWKWRWK-NH2; N-terminus assumed) | 250 µg/mL (≈ 188 µM) | 62.5 µg/mL (≈ 47 µM) | 92.2 µg/mL | 7.8 µg/mL (≈ 5.86 µM) | 125 µg/mL (≈ 93.9 µM) | 15.6 µg/mL (≈ 11.7 µM) |  |  |  |  | 
CC[C@@H](C)[C@@H](N)C(=O)N[C@@H](C(=O)N[C@H](CCCNC(=N)N)C(=O)N[C@H](CCCCN)C(=O)N[C@@H](C(=O)N[C@@H](C(=O)N[C@H](CCCNC(=N)N)C(=O)N[C@H](CCCCN)C(N)=O)[C@H](C)CC)[C@H](C)CC)[C@H](C)CC [Control-all D, iirkiirk-NH2] (H-[dI][dI][dR][dK][dI][dI][dR][dK]-NH2; N-terminus assumed) |  |  |  |  |  |  | 250 µg/mL (≈ 241 µM) | >500 µg/mL | >500 µg/mL | >500 µg/mL | MIC S. epidermidis [8]: >500 µg/mL; HC10, haemolysis concentration 10%: lowest peptide concentration that induces ≧10% haemolysis [11]: >2000 mg/L
CC[C@@H](C)[C@@H](N)C(=O)N[C@H](CCCNC(=N)N)C(=O)N[C@@H](C(=O)N[C@H](CCCCN)C(=O)N[C@@H](C(=O)N[C@H](CCCNC(=N)N)C(N)=O)[C@H](C)CC)[C@H](C)CC [IK6-all D, irikir-NH2] (H-[dI][dR][dI][dK][dI][dR]-NH2; N-terminus assumed) |  |  |  |  |  |  | 15.6 µg/mL (≈ 19.6 µM) | 62.5 µg/mL (≈ 78.4 µM) | 250 µg/mL (≈ 314 µM) | 125 µg/mL (≈ 157 µM) | GM, geometric mean of MIC values for the 5 microorganisms tested [13]: 113.3 µg/mL
CC[C@H](C)[C@H](N)C(=O)N[C@@H](CCCNC(=N)N)C(=O)N[C@H](C(=O)N[C@H](CCCCN)C(=O)N[C@H](C(=O)N[C@H](CCCNC(=N)N)C(=O)N[C@H](C(=O)N[C@@H](CCCCN)C(N)=O)[C@@H](C)CC)[C@@H](C)CC)[C@@H](C)CC [IK8-2D, IRIkIrIK-NH2] (H-IRI[dK]I[dR]IK-NH2; N-terminus assumed) |  |  |  |  |  |  | 3.9 µg/mL (≈ 3.76 µM) | 15.6 µg/mL (≈ 15 µM) | 31.3 µg/mL (≈ 30.1 µM) | 7.8 µg/mL (≈ 7.51 µM) | MIC M. tuberculosis ([14]; strain number 1173): 62.5 µg/mL (≈ 60.2 µM); MIC M. tuberculosis ([14]; strain number 1177): 62.5 µg/mL (≈ 60.2 µM); MIC M. tuberculosis ([14]; strain number 1178): 62.5 µg/mL (≈ 60.2 µM); MIC M. tuberculosis ([14]; strain number 1179): 125 µg/mL (≈ 120 µM); MIC S. epidermidis [8]: 3.9 µg/mL (≈ 3.76 µM); GM, geometric mean of MIC values for the 5 microorganisms tested [13]: 12.5 µg/mL; HC10, haemolysis concentration 10%: lowest peptide concentration that induces ≧10% haemolysis [11]: 1600 mg/L
CC[C@@H](C)[C@@H](N)C(=O)N[C@H](CCCNC(=N)N)C(=O)N[C@@H](C(=O)N[C@H](CCCCN)C(=O)N[C@@H](C(=O)N[C@H](CCCNC(=N)N)C(=O)N[C@@H](C(=O)N[C@H](CCCCN)C(=O)N[C@@H](C(=O)N[C@H](CCCNC(=N)N)C(=O)N[C@@H](C(=O)N[C@H](CCCCN)C(N)=O)C(C)C)[C@H](C)CC)C(C)C)[C@H](C)CC)C(C)C [IK12-all D, irvkirvkirvk-NH2] (H-[dI][dR][dV][dK][dI][dR][dV][dK][dI][dR][dV][dK]-NH2; N-terminus assumed) |  |  |  |  |  |  | 31.3 µg/mL (≈ 20.8 µM) | 7.8 µg/mL (≈ 5.18 µM) | 7.8 µg/mL (≈ 5.18 µM) | 15.6 µg/mL (≈ 10.4 µM) | MIC S. epidermidis [8]: 1.0 µg/mL (≈ 0.664 µM); GM, geometric mean of MIC values for the 5 microorganisms tested [13]: 12.7 µg/mL; fold reduction in MIC values compared with the L-enantiomer ([13]; against the various bacteria): 2-4 fold; HC10, haemolysis concentration 10%: lowest peptide concentration that induces ≧10% haemolysis [11]: >125^e) mg L^−1
C[C@@H]1[C@H](O)[C@@H](C)/C=C/C=C/C=C/C=C/C=C/C=C/C=C/[C@H](O[C@@H]2O[C@H](C)[C@@H](O)[C@H](N)[C@@H]2O)C[C@@H]2O[C@](O)(C[C@@H](O)C[C@@H](O)[C@H](O)CC[C@@H](O)C[C@@H](O)CC(=O)O[C@H]1C)C[C@H](O)[C@H]2C(=O)O [amphotericin B, reference compound] |  |  |  |  |  |  |  |  |  |  | fungal cells eradicated from the biofilms compared to the untreated control group ([15]; C. albicans counts in mice cornea, agar plating): ~90%; depth of hyphal invasion into the cornea, PAS histology [15, 18]: reduced the maximal depth of hyphal invasion; resolution of the keratitis infection (eye appearance) [15, 18]: significant resolution of the keratitis infection; clinical scores of mice corneas (slit lamp) ([15]; topical eye drops, peptides 3000 mg/L, amphotericin B 1000 mg/L, P<0.01): significantly lower than that in the control group
Polymyxin B [reference compound] |  | 125 µg/mL | 41.4 µg/mL | 15.6 µg/mL | 2.0 µg/mL | 2.0 µg/mL |  |  |  |  | MIC C. albicans ([1]; room temperature): 62.5 µg/mL; LD50 reported for comparator [16]: 5.4 mg/kg
gentamicin sulfate |  |  |  |  |  |  |  |  |  |  | MICn/MIC0 ([17]; passage 2): 2; MICn/MIC0 ([17]; passage 6): 4
gramicidin |  |  |  |  |  |  |  |  |  |  | LD50 reported for comparator [16]: 1.5 mg/kg
